Where two headings read alike, the source gives them in different places.
Experiments:
Assay type in all cases: in vivo
Ambrosia artemisiifolia = experiment: Test Example 1: seeds on filter paper moistened with chemical solution, herbicidal effect visually evaluated; conditions: visually evaluated 6 days after treatment; for pest or weed control at 0.2 ppm: amount of active ingredient 0.2 ppm
Experimental: As the compound (1), 1-methoxy-3-methyl-6-(1,1-dioxido-8-(trifluoromethyl)thiochroman-5-yl)-7-oxa-3,4-diazabicyclo[4.1.0]hept-4-en-2-one (Compound (I-3)) was used.
(§1) The compound (I) or compound (II) was prepared into a 5% emulsion using DMF (containing 1.5% Tween) and diluted with water to a prescribed dosage concentration. Commercially available preparations were dissolved in water and adjusted to a prescribed dosage concentration.
(§2) Seeds were soaked in 0.6% sodium hypochlorite for a predetermined time for surface sterilization and washed with water for use (seed disinfection). Seeds of Ambrosia artemisiifolia were used for the test.
(§3) Filter paper was placed on a cup (diameter: 10 cm, height: 4 cm) with a lid and moistened with 8 ml of chemical solution, and seeds were sown thereon, and after covering with a lid, grown in a constant temperature room.
(§4) The herbicidal effects were visually evaluated, 6 days after the treatment, as the herbicidal effect (%), by comparing with a state of an untreated group using a total of 21 scores of withering index from 0 to 20 (0: mortality rate equivalent to that of the untreated group, 20: mortality rate of 100%).
(§5) In addition, the expected values of the herbicidal effects were calculated from the herbicidal effects in a case where the compound (I) alone was applied and the herbicidal effects in a case where the compound (II) alone was applied by using the Colby's formula (Colby, S. R., Calculating synergistic and antagonistic responses of herbicide combinations, Weeds, 15, pp. 20-22 (1967)).
(§6) M indicates an herbicidal effect (%) in the application of the compound (I) alone, N indicates an herbicidal effect (%) in the application of the compound (II) alone, and E indicates an expected value (%) of the herbicidal effect in the combined application of the compound (T) and the compound (TT). When the actual measured value (%) of the herbicidal effect in the combined application of the compound (I) and the compound (II) is greater than the expected value E, it can be regarded that the combined application of the compound (I) and the compound (II) has a synergistic effect.

Zea mays [1] = experiment: Test Example 6: foliar spraying treatment, herbicidal effect from above ground weight (useful plant)
Experimental: (§7) POA allylphenyl ether (4.1 parts by weight), POE-POP glycol (1 part by weight), POE sorbitan laurate (0.8 parts by weight), glycerin (2.6 parts by weight), dimethylformamide (65.9 parts by weight), N-methylpyrrolidone (5.1 parts by weight), cyclohexanone (15.4 parts by weight), and aromatic hydrocarbons (5.1 parts by weight) were mixed and dissolved to prepare an emulsion. The active ingredient (4 mg) of the composition of the present invention was dissolved in this emulsion (100 μL) to prepare a test emulsion. It should be noted that POA means “polyoxyalkylene”, POE means “polyoxyethylene”, and POP means “polyoxypropylene”.
(§8) A test emulsion was prepared in the same manner as in Test Example 4.
(§9) A 300 cm^2 pot was filled with soil, and seeds of Zea mays and Ipomoea hederacea were sown into the surface layer, and then grown in a greenhouse after being covered lightly with soil. When each plant grew to a plant height of 7 to 9 cm, the above test emulsion was diluted so that the amount of the active ingredient became a predetermined amount, and sprayed on the foliage with a small sprayer at a spray water volume of 250 L per hectare.
(§10) Test Examples 6-1 and 6-3 were evaluated in the same manner as in Test Example 4.
(§11) The expected values of the herbicidal effects in Test Example 6-2 were calculated using the following Colby's formula (Colby, S. R., Calculating synergistic and antagonistic responses of herbicide combinations, Weeds, 15, pp. 20-22 (1967)).
(§12) X indicates an herbicidal effect (%) by applying the compound (1) alone, Y and Z each indicate an herbicidal effect (%) by applying one of the two types of the compounds (II) alone, and E indicates an expected value (%) of the herbicidal effect by applying combinations of the compound (I) and two types of the compounds (II).
(§13) When the actual measured value (%) of the herbicidal effect by the combined application of the compound (I) and two types of the compounds (11) is greater than the expected value E, it can be regarded that the combined application of the compound (1) and two types of the compounds (II) has a synergistic effect.
The following plants were used as useful plants [scientific names]. • Corn for animal feed [Zea mays]

Ipomoea hederacea [2] = experiment: Test Example 6: foliar spraying treatment, herbicidal effect from above ground weight
Experimental: as §7, §8, §9, §10, §11, §12, §13
The following grass species were used as grass species to be controlled [scientific names]. • Morning glory [Ipomoea hederacea]

Triticum aestivum = experiment: Test Example 5: spraying on the soil surface, herbicidal effect from above ground weight (useful plant); conditions: Flufenacet alone, 250 gai/ha, sprayed on the soil surface, seven weeks after spraying
Experimental: as §7
(§14) For the evaluation of the herbicidal effects, the above ground weights of weeds in the untreated and treated areas were measured for each weed 3 weeks after spraying treatment, and the herbicidal effect (%) was calculated by the following calculation formula.
(§15) Herbicidal effect (%)=[(above ground weight of weeds in untreated area)−(above ground weight of weeds in treated area)/(above ground weight of weeds in untreated area)]×100
as §8
(§16) A 300 cm^2 pot was filled with soil, and seeds of Triticum aestivum, multidrug-resistant Alopecurus myosuroides, Lolium multiflorum and Avena fatua were sown into the surface layer, and covered with soil to a thickness of 0.5 to 1 cm. The above test emulsion was diluted so that the amount of the active ingredient became a predetermined amount, and sprayed on the soil surface at a spray water volume of 250 L per hectare, followed by growth in an outdoor environment.
(§17) Seven weeks after spraying, the evaluation was carried out in the same manner as in Test Example 4, except that the above ground weights of weeds in the untreated and treated areas were measured for each weed.
The following plants were used as useful plants [scientific names]. • Wheat [Triticum aestivum]

Avena fatua = experiment: Test Example 5: spraying on the soil surface, herbicidal effect from above ground weight; conditions: Flufenacet alone, 250 gai/ha, sprayed on the soil surface, seven weeks after spraying
Experimental: as §7, §14, §15, §8, §16, §17
(§18) The following grass species were used as grass species to be controlled [scientific names]. • Blackgrass * [Alopecurus myosuroides] • Italian ryegrass [Lolium multiflorum] • Wild oat [Avena fatua]

Lolium multiflorum = experiment: as above; conditions: Flufenacet alone, 250 gai/ha, sprayed on the soil surface, seven weeks after spraying
Experimental: as §7, §14, §15, §8, §16, §17, §18

[3] = system: multidrug-resistant Alopecurus myosuroides; experiment: as above; conditions: Flufenacet alone, 250 gai/ha; sprayed on the soil surface; seven weeks after spraying; Alopecurus myosuroides multidrug-resistant strain
Experimental: as §7, §14, §15, §8, §16, §17, §18

Abutilon theophrasti = experiment: Test Example 3: seeds on filter paper moistened with chemical solution, herbicidal effect visually evaluated; conditions: 6 days after the treatment
Experimental: as §1, §2, §3, §4, §5, §6
The herbicidal effects were evaluated by the same method as in Test Example 1 except that the seeds used in the test were changed from Ambrosia artemisiifolia to Abutilon theophrasti.

Zea mays [4] = experiment: Test Example 4: foliar spraying treatment, herbicidal effect from above ground weight (useful plant); conditions: 3 weeks after spraying
Experimental: as §7
as §9, with “mays, Setaria faberi, Sorghum halepense, Brachiaria platyphylla, Amaranthus palmeri, Senna obtusifolia” for “mays”, “11” for “9”, “cm, it was used for” for “cm,”, “test. The” for “above”
as §14
as §5, with “(1967)). […]” for “(1967)).”

Amaranthus palmeri = experiment: Test Example 4: foliar spraying treatment, herbicidal effect from above ground weight; conditions: 3 weeks after spraying
Experimental: as §7
as §9, with “mays, Setaria faberi, Sorghum halepense, Brachiaria platyphylla, Amaranthus palmeri, Senna obtusifolia” for “mays”, “11” for “9”, “cm, it was used for” for “cm,”, “test. The” for “above”
as §14, §5
(§19) M indicates an herbicidal effect (%) in the application of the compound (1) alone, N indicates an herbicidal effect (%) in the application of the compound (II) alone, and E indicates an expected value (%) of the herbicidal effect in the combined application of the compound (I) and the compound (II). When the actual measured value (%) of the herbicidal effect in the combined application of the compound (I) and the compound (II) is greater than the expected value E, it can be regarded that the combined application of the compound (1) and the compound (II) has a synergistic effect.
as §15
(§20) The following grass species were used as grass species to be controlled [scientific names]. • Giant foxtail [Setaria faberi] • Johnson grass [Sorghum halepense] • Broadleaf signalgrass [Brachiaria platyphylla] • Palmer amaranth [Amaranthus palmeri] • Sicklepod [Senna obtusifolia] • Morning glory [Ipomoea hederacea]

Brachiaria platyphylla = experiment: as above; conditions: 3 weeks after spraying
Experimental: as §7
as §9, with “mays, Setaria faberi, Sorghum halepense, Brachiaria platyphylla, Amaranthus palmeri, Senna obtusifolia” for “mays”, “11” for “9”, “cm, it was used for” for “cm,”, “test. The” for “above”
as §14, §5, §19, §15, §20

Ipomoea hederacea [5] = experiment: as above; conditions: 3 weeks after spraying
Experimental: as §7
as §9, with “mays, Setaria faberi, Sorghum halepense, Brachiaria platyphylla, Amaranthus palmeri, Senna obtusifolia” for “mays”, “11” for “9”, “cm, it was used for” for “cm,”, “test. The” for “above”
as §14, §5, §19, §15, §20

Senna obtusifolia = experiment: as above; conditions: 3 weeks after spraying
Experimental: as §7
as §9, with “mays, Setaria faberi, Sorghum halepense, Brachiaria platyphylla, Amaranthus palmeri, Senna obtusifolia” for “mays”, “11” for “9”, “cm, it was used for” for “cm,”, “test. The” for “above”
as §14, §5, §19, §15, §20

Setaria faberi = experiment: as above; conditions: 3 weeks after spraying
Experimental: as §7
as §9, with “mays, Setaria faberi, Sorghum halepense, Brachiaria platyphylla, Amaranthus palmeri, Senna obtusifolia” for “mays”, “11” for “9”, “cm, it was used for” for “cm,”, “test. The” for “above”
as §14, §5, §19, §15, §20

Sorghum halepense = experiment: as above; conditions: 3 weeks after spraying
Experimental: as §7
as §9, with “mays, Setaria faberi, Sorghum halepense, Brachiaria platyphylla, Amaranthus palmeri, Senna obtusifolia” for “mays”, “11” for “9”, “cm, it was used for” for “cm,”, “test. The” for “above”
as §14, §5, §19, §15, §20

Digitaria ciliaris = experiment: Test Example 2: seeds on filter paper moistened with chemical solution, herbicidal effect visually evaluated; conditions: Pinoxaden alone, 0.2 ppm, 6 days after the treatment

Cn1nc(C(F)(F)F)c(CS(=O)(=O)C2=NOC(C)(C)C2)c1OC(F)F [Pyroxasulfone]
pest or weed control at 0.2 ppm (Ambrosia artemisiifolia; Ambrosia artemisiifolia, 144 h, applied alone, read-out: Herbicidal effect (%)): 30% | Actual measured value of herbicidal effect (Zea mays [1]; Pyroxasulfone alone, 94 gai/ha): 0% | Actual measured value of herbicidal effect (Ipomoea hederacea [2]; Pyroxasulfone alone, 94 gai/ha): 60%

CC(C)N(C(=O)COc1nnc(C(F)(F)F)s1)c1ccc(F)cc1 [Flufenacet, reference compound]
pest or weed control at 0.2 ppm (Ambrosia artemisiifolia; Ambrosia artemisiifolia, 144 h, compound applied alone, read-out: Herbicidal effect (%)): 20% | Actual measured value of herbicidal effect (Triticum aestivum): 30% | Actual measured value of herbicidal effect (Avena fatua): 60% | Actual measured value of herbicidal effect (Lolium multiflorum): 70% | Actual measured value of herbicidal effect [3]: 40%

COC(=O)c1sccc1S(=O)(=O)NC(=O)Nc1nc(C)nc(OC)n1 [Thifensulfuron-methyl, reference compound]
Herbicidal effect (Abutilon theophrasti; Thifensulfuron-methyl alone, 0.8 ppm): 10%

CCNc1nc(Cl)nc(NC(C)C)n1 [Atrazine]
pest or weed control at 200 ppm (Ambrosia artemisiifolia; Ambrosia artemisiifolia, 144 h, applied alone, amount of active ingredient 200 ppm): 10% | Actual measured value of herbicidal effect (Zea mays [4]; Atrazine alone, 500 gai/ha): 0% | Actual measured value of herbicidal effect (Amaranthus palmeri; Atrazine alone, 500 gai/ha): 100% | Actual measured value of herbicidal effect (Brachiaria platyphylla; Atrazine alone, 500 gai/ha): 0% | Actual measured value of herbicidal effect (Ipomoea hederacea [5]; Atrazine alone, 500 gai/ha): 100% | Actual measured value of herbicidal effect (Senna obtusifolia; Atrazine alone, 500 gai/ha): 30% | Actual measured value of herbicidal effect (Setaria faberi; Atrazine alone, 500 gai/ha): 100% | Actual measured value of herbicidal effect (Sorghum halepense; Atrazine alone, 500 gai/ha): 0%

O=C(O)c1nc(Cl)ccc1Cl [Clopyralid]
pest or weed control at 12.5 ppm (Ambrosia artemisiifolia; Ambrosia artemisiifolia, 144 h, applied alone, amount of active ingredient 12.5 ppm, read-out: Herbicidal effect (%)): 90% | Actual measured value of herbicidal effect (Zea mays [1]; Clopyralid alone, 125 gai/ha): 0% | Actual measured value of herbicidal effect (Ipomoea hederacea [2]; Clopyralid alone, 125 gai/ha): 30%

COc1nn(C(=O)[N-]S(=O)(=O)c2ccccc2OC(F)(F)F)c(=O)n1C.[Na+] [Flucarbazone-Sodium, reference compound]
Herbicidal effect (Abutilon theophrasti; Flucarbazone-Sodium alone, 3.1 ppm): 20%

CCOCN(C(=O)CCl)c1c(C)cccc1CC [Acetochlor]
pest or weed control at 0.8 ppm (Ambrosia artemisiifolia; Ambrosia artemisiifolia, 144 h, applied alone, amount of active ingredient 0.8 ppm, read-out: Herbicidal effect (%)): 40% | Actual measured value of herbicidal effect (Zea mays [4]; Acetochlor alone, 1,000 gai/ha): 0% | Actual measured value of herbicidal effect (Amaranthus palmeri; Acetochlor alone, 1,000 gai/ha): 50% | Actual measured value of herbicidal effect (Brachiaria platyphylla; Acetochlor alone, 1,000 gai/ha): 60% | Actual measured value of herbicidal effect (Ipomoea hederacea [5]; Acetochlor alone, 1,000 gai/ha): 20% | Actual measured value of herbicidal effect (Senna obtusifolia; Acetochlor alone, 1,000 gai/ha): 20% | Actual measured value of herbicidal effect (Setaria faberi; Acetochlor alone, 1,000 gai/ha): 70% | Actual measured value of herbicidal effect (Sorghum halepense; Acetochlor alone, 1,000 gai/ha): 60% | Actual measured value of herbicidal effect (Zea mays [1]; Acetochlor alone, 2,000 gai/ha): 0% | Actual measured value of herbicidal effect (Ipomoea hederacea [2]; Acetochlor alone, 2,000 gai/ha): 20%

2,4-D amine
Herbicidal effect (%) (Ambrosia artemisiifolia; applied alone, amount of active ingredient 0.05 ppm): 20%

CP(=O)(O)CCC(N)C(=O)O (stereo not shown) [Glufosinate-ammonium]
pest or weed control at 12.5 ppm (Ambrosia artemisiifolia; Ambrosia artemisiifolia, 144 h, read-out: Herbicidal effect (%), applied alone, amount of active ingredient 12.5 ppm): 20%

CCc1cc(C)cc(CC)c1-c1c(OC(=O)C(C)(C)C)n2n(c1=O)CCOCC2 [Pinoxaden, reference compound]
Herbicidal effect (Digitaria ciliaris): 10%

Reference: patent US20240130368A1, “HERBICIDAL COMPOSITION” (Nippon Soda Co., Ltd., priority 2021, published 2024)
